Data taken from patent US10144706B2 (BRISTOL-MYERS SQUIBB COMPANY, priority 2016, dated 2018).
Like-named read-outs stand apart in the source and are kept apart here.

Molecular target: T1, PD-1/PD-L1 interaction (PD-1-Ig / PD-L1-His) (Homo sapiens, UniProt Q9NZQ7)
T1 construct: hPDL1(18-239)-TVMV-His; TVMV protease site linker (C); made in house; host or cells: HEK293T
Test: PD-1/PD-L1 Homogenous Time-Resolved Fluorescence (HTRF) binding assay
Conditions: PD-L1-His 10 nM, PD-1-Ig 20 nM, read-out: Range or IC50
How it was run: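 HTRF detection used 1 nM europium-cryptate anti-Ig and 20 nM APC anti-His. Compounds first saw 10 nM PD-L1-His for 15 min, and 20 nM PD-1-Ig was then added for another 15 min. Buffer was dPBS plus 0.1% BSA and 0.05% Tween-20. All concentrations are final.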

T1 sequence (Q9NZQ7 with tags, fused parts or gaps): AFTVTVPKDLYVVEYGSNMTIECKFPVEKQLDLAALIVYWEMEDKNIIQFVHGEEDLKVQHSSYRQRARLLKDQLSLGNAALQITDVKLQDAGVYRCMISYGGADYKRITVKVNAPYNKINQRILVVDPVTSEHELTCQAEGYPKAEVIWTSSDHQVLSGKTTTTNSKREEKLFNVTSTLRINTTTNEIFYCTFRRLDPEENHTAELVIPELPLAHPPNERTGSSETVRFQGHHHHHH

IC50 (numeric IC50) [nM]	IC50 (IC50 range class) [nM]	SMILES
	0.04 to 20	COc1cc(OCc2cccc(-c3cccc(COc4cc(OC)c(CNC(CO)CO)cc4Cl)c3C)c2C)c(Cl)cc1CNC(CO)CO [Example 2122, 2,2′-((((((2,2′-dimethyl-[1,1′-biphenyl]-3,3′-diyl)bis(methylene))bis(oxy))bis(5-chloro-2-methoxy-4,1-phenylene))bis(methylene))bis(azanediyl))bis(propane-1,3-diol)]
	0.04 to 20	Cc1c(COc2cc(OCc3cncc(C#N)c3)c(CN[C@@](C)(CO)C(=O)O)cc2Cl)cccc1-c1cccc(COc2cc(OCc3cncc(C#N)c3)c(CN[C@@](C)(CO)C(=O)O)cc2Cl)c1C [Example 2123, (2S,2′S)-2,2′-((((((2,2′-dimethyl-[1,1′-biphenyl]-3,3′-diyl)bis(methylene))bis(oxy))bis(5-chloro-2-((5-cyanopyridin-3-yl)methoxy)-4,1-phenylene))bis(methylene))bis(azanediyl))bis(3-hydroxy-2-methylpropanoic acid)]
	0.04 to 20	Cc1c(COc2cc(OCc3cncc(C#N)c3)c(CO)cc2Cl)cccc1-c1cccc(COc2cc(OCc3cncc(C#N)c3)c(CN[C@@](C)(CO)C(=O)O)cc2Cl)c1C [Example 2124, (S)-2-((5-chloro-4-((3′-((2-chloro-5-((5-cyanopyridin-3-yl)methoxy)-4-(hydroxymethyl)phenoxy)methyl)-2,2′-dimethyl-[1,1′-biphenyl]-3-yl)methoxy)-2-((5-cyanopyridin-3-yl)methoxy)benzyl)amino)-3-hydroxy-2-methylpropanoic acid]
	0.04 to 20	Cc1c(COc2cc(OCc3cncc(C#N)c3)c(CN3CC[C@@H](O)C3)cc2Cl)cccc1-c1cccc(COc2cc(OCc3cncc(C#N)c3)c(CN3CC[C@@H](O)C3)cc2Cl)c1C [Example 2125, 5,5′-((((((2,2′-dimethyl-[1,1′-biphenyl]-3,3′-diyl)bis(methylene))bis(oxy))bis(4-chloro-6-(((R)-3-hydroxypyrrolidin-1-yl)methyl)-3,1-phenylene))bis(oxy))bis(methylene))dinicotinonitrile]
	20.1 to 90	Cc1c(COc2cc(OCc3cncc(C#N)c3)c(CO)cc2Cl)cccc1-c1cccc(COc2cc(OCc3cncc(C#N)c3)c(CN3CC[C@@H](O)C3)cc2Cl)c1C [Example 2126, (R)-5-((4-chloro-5-((3′-((2-chloro-5-((5-cyanopyridin-3-yl)methoxy)-4-((3-hydroxypyrrolidin-1-yl)methyl)phenoxy)methyl)-2,2′-dimethyl-[1,1′-biphenyl]-3-yl)methoxy)-2-(hydroxymethyl)phenoxy)methyl)nicotinonitrile]
	0.04 to 20	Cc1c(COc2cc(OCc3cncc(C#N)c3)c(CNC[C@H](O)CO)cc2Cl)cccc1-c1cccc(COc2cc(OCc3cncc(C#N)c3)c(CNC[C@H](O)CO)cc2Cl)c1C [Example 2127, 5,5′-((((((2,2′-dimethyl-[1,1′-biphenyl]-3,3′-diyl)bis(methylene))bis(oxy))bis(4-chloro-6-((((S)-2,3-dihydroxypropyl)amino)methyl)-3,1-phenylene))bis(oxy))bis(methylene))dinicotinonitrile]
	0.04 to 20	Cc1c(COc2cc(OCc3cncc(C#N)c3)c(CNC(CO)CO)cc2Cl)cccc1-c1cccc(COc2cc(OCc3cncc(C#N)c3)c(CNC(CO)CO)cc2Cl)c1C [Example 2128, 5,5′-((((((2,2′-dimethyl-[1,1′-biphenyl]-3,3′-diyl)bis(methylene))bis(oxy))bis(4-chloro-6-(((1,3-dihydroxypropan-2-yl)amino)methyl)-3,1-phenylene))bis(oxy))bis(methylene))dinicotinonitrile]
	90.1 to 1000	Cc1c(COc2cc(OCc3cncc(C#N)c3)c(CO)cc2Cl)cccc1-c1cccc(COc2cc(OCc3cncc(C#N)c3)c(CNC(CO)CO)cc2Cl)c1C [Example 2129, 5-((4-chloro-5-((3′-((2-chloro-5-((5-cyanopyridin-3-yl)methoxy)-4-(((1,3-dihydroxypropan-2-yl)amino)methyl)phenoxy)methyl)-2,2′-dimethyl-[1,1′-biphenyl]-3-yl)methoxy)-2-(hydroxymethyl)phenoxy)methyl)nicotinonitrile]
	0.04 to 20	Cc1c(COc2cc(OCc3cncc(C#N)c3)c(CN(C[C@H](O)CO)C(CO)CO)cc2Cl)cccc1-c1cccc(COc2cc(OCc3cncc(C#N)c3)c(CN(C[C@H](O)CO)C(CO)CO)cc2Cl)c1C [Example 2131, 5,5′-((((((2,2′-dimethyl-[1,1′-biphenyl]-3,3′-diyl)bis(methylene))bis(oxy))bis(4-chloro-6-(((1,3-dihydroxypropan-2-yl)((S)-2,3-dihydroxypropyl)amino)methyl)-3,1-phenylene))bis(oxy))bis(methylene))dinicotinonitrile]
	0.04 to 20	Cc1c(OCCCNC2C[C@H](CO)[C@@H](O)[C@H]2O)cccc1-c1cccc(OCCCN[C@@H]2C[C@H](CO)[C@@H](O)[C@H]2O)c1C (stereo partly drawn) [Example 2132, (1R,2S,5R)-3-((3-((3′-(3-(((1R,2S,3R,4R)-2,3-dihydroxy-4-(hydroxymethyl)cyclopentyl)amino)propoxy)-2,2′-dimethyl-[1,1′-biphenyl]-3-yl)oxy)propyl)amino)-5-(hydroxymethyl)cyclopentane-1,2-diol]
	90.1 to 1000	Cc1c(COc2cc(OCc3cncc(C#N)c3)c(CN3C(=O)OCC3CO)cc2Cl)cccc1-c1cccc(COc2cc(OCc3cncc(C#N)c3)c(CN3C(=O)OCC3CO)cc2Cl)c1C (stereo not shown) [Example 2133, 5,5′-((((((2,2′-dimethyl-[1,1′-biphenyl]-3,3′-diyl)bis(methylene))bis(oxy))bis(4-chloro-6-((4-(hydroxymethyl)-2-oxooxazolidin-3-yl)methyl)-3,1-phenylene))bis(oxy))bis(methylene))dinicotinonitrile]
	90.1 to 1000	NCCCOc1cccc(-c2cccc(OCCCN)c2Cl)c1Cl [Example 2134, 3,3′-((2,2′-dichloro-[1,1′-biphenyl]-3,3′-diyl)bis(oxy))bis(propan-1-amine)]

More lines, now with the values behind:

SMILES	IC50 (numeric IC50) [nM]	IC50 (IC50 range class) [nM]
Cc1c(OCCCNC[C@H](O)c2ccccc2)cccc1-c1cccc(OCCCN2CC[C@@H](O)C2)c1C [Example 2112, (R)-1-(3-((3′-(3-(((R)-2-hydroxy-2-phenylethyl)amino)propoxy)-2,2′-dimethyl-[1,1′-biphenyl]-3-yl)oxy)propyl)pyrrolidin-3-ol]	81	
Cc1c(OCCCNC[C@@H](O)c2ccccc2)cccc1-c1cccc(OCCCN2CC[C@@H](O)C2)c1C [Example 2113, (R)-1-(3-((3′-(3-(((S)-2-hydroxy-2-phenylethyl)amino)propoxy)-2,2′-dimethyl-[1,1′-biphenyl]-3-yl)oxy)propyl)pyrrolidin-3-ol]		20.1 to 90
Cc1c(OCCCN2CCC[C@@H](O)C2)cccc1-c1cccc(OCCCN2CC[C@@H](O)C2)c1C [Example 2114, (R)-1-(3-((3′-(3-((R)-3-hydroxypyrrolidin-1-yl)propoxy)-2,2′-dimethyl-[1,1′-biphenyl]-3-yl)oxy)propyl)piperidin-3-ol]		90.1 to 1000
Cc1c(OCCCN2CC[C@@H](O)C2)cccc1-c1cccc(OCCCN2CCC[C@H](O)C2)c1C [Example 2115, (S)-1-(3-((3′-(3-((R)-3-hydroxypyrrolidin-1-yl)propoxy)-2,2′-dimethyl-[1,1′-biphenyl]-3-yl)oxy)propyl)piperidin-3-ol]		20.1 to 90
Cc1c(OCCCN[C@@H](Cc2ccccn2)C(=O)O)cccc1-c1cccc(OCCCN2CC[C@@H](O)C2)c1C [Example 2116, (S)-2-((3-((3′-(3-((R)-3-hydroxypyrrolidin-1-yl)propoxy)-2,2′-dimethyl-[1,1′-biphenyl]-3-yl)oxy)propyl)amino)-3-(pyridin-2-yl)propanoic acid]		90.1 to 1000
Cc1c(OCCCN[C@@H](Cc2cccnc2)C(=O)O)cccc1-c1cccc(OCCCN2CC[C@@H](O)C2)c1C [Example 2117, (S)-2-((3-((3′-(3-((R)-3-hydroxypyrrolidin-1-yl)propoxy)-2,2′-dimethyl-[1,1′-biphenyl]-3-yl)oxy)propyl)amino)-3-(pyridin-3-yl)propanoic acid]		90.1 to 1000
Cc1c(OCCCNCCc2ccccn2)cccc1-c1cccc(OCCCN2CC[C@@H](O)C2)c1C [Example 2118, (R)-1-(3-((2,2′-dimethyl-3′-(3-((2-(pyridin-2-yl)ethyl)amino)propoxy)-[1,1′-biphenyl]-3-yl)oxy)propyl)pyrrolidin-3-ol]		20.1 to 90
Cc1c(COc2cc(OCc3cncc(C#N)c3)c(CN3CCCC[C@H]3C(=O)O)cc2Cl)cccc1-c1cccc(COc2cc(OCc3cncc(C#N)c3)c(CN3CCCC[C@H]3C(=O)O)cc2Cl)c1C [Example 2119, (2S,2′S)-1,1′-(((((2,2′-dimethyl-[1,1′-biphenyl]-3,3′-diyl)bis(methylene))bis(oxy))bis(5-chloro-2-((5-cyanopyridin-3-yl)methoxy)-4,1-phenylene))bis(methylene))bis(piperidine-2-carboxylic acid)]		0.04 to 20
Cc1c(COc2cc(OCc3cncc(C#N)c3)c(CO)cc2Cl)cccc1-c1cccc(COc2cc(OCc3cncc(C#N)c3)c(CN3CCCC[C@H]3C(=O)O)cc2Cl)c1C [Example 2120, (S)-1-(5-chloro-4-((3′-((2-chloro-5-((5-cyanopyridin-3-yl)methoxy)-4-(hydroxymethyl)phenoxy)methyl)-2,2′-dimethyl-[1,1′-biphenyl]-3-yl)methoxy)-2-((5-cyanopyridin-3-yl)methoxy)benzyl)piperidine-2-carboxylic acid]		0.04 to 20
Cc1c(COc2cc(OCc3cncc(C#N)c3)c(CN[C@](C)(CO)C(=O)O)cc2Cl)cccc1-c1cccc(COc2cc(OCc3cncc(C#N)c3)c(CN[C@](C)(CO)C(=O)O)cc2Cl)c1C [Example 2121, (2R,2′R)-2,2′-((((((2,2′-dimethyl-[1,1′-biphenyl]-3,3′-diyl)bis(methylene))bis(oxy))bis(5-chloro-2-((5-cyanopyridin-3-yl)methoxy)-4,1-phenylene))bis(methylene))bis(azanediyl))bis(3-hydroxy-2-methylpropanoic acid)]		0.04 to 20
